Here are results for one compound from patent US8901105B2, “Prodrug derivatives of (E)-N-methyl-N-((3-M ethylbenzofuran-2-yl)methyl)-3-(7-oxo-5,6,7,8-tetrahydro-1,8-naphthyridin-3-yl)acrylamide” (Affinium Pharmaceuticals, Inc., priority 2012, dated 2014).

Common to all, as to format: physicochemical
Data set [1] can be described thus: Solid-state stability (HPLC % area after storage). Conditions: for Solid-state stability % Area: 4 weeks. On the procedure: (§1) Various compounds disclosed herein have been placed on long-term solid-state stability protocol. The compounds were stored in glass vials closed with PTFE lined caps at 30° C./65% RH, 40° C./75% RH, 50° C. and 60° C. (ambient humidity). The results of the study after 4 weeks are shown in Table B1 and after 3 months in Table B2. Appearance and purity analysis were conducted using HPLC and XPRD. The HPLC analyses were conducted using standard equipment such as a Agilent HP1100 HPLC (Station ID: LZPES HPLC 04) with YMC-Pack ODS-AQ sub 3 μm, 150×4.6 mm

A short description of data set [2]: Aqueous solubility of salts at 25° C. Conditions: for Comments (behaviour in solubility experiment): water, 25° C., disodium salt.
Data set [3] can be described thus: Photostability of solid salts.
The nature of data set [4]: XRPD crystal form after storage. Conditions: 4 weeks storage. Here is the method:
as §1, with “mm Samples were prepared for XRPD by sprinkling ˜20 mg onto a Si wafer zero background plate and pressing the material flat to ensure the surface is smooth and level. The samples were analyzed according the equipment parameters below.” for “mm”

A word on the solubility: it is the dissolved amount per volume that the medium holds. Turning to `Cc1c(CN(C)C(=O)/C=C/c2cnc3c(c2)CCC(=O)N3COP(=O)([O-])[O-])oc2ccccc12.[Na+].[Na+]` [Compound 9], the “Solid-state stability % Area” value in data set [1] (30° C./65% RH) turned out to be 96.3 % Area; in data set [1] (40° C./75% RH), 84.4 % Area; in data set [1] (50° C./ambient humidity), 86.8 % Area; in data set [1] (60° C./ambient humidity) it was 85.9 % Area; in data set [1] (Control (ambient lab conditions protected from light)), 96.4 % Area. In addition, in data set [1] (over 1 month at 30° C./65% RH, closed vials, light protected), the chemical stability entry was “chemically stable”. The solubility in data set [2] (aqueous buffer, pH 6.6, aqueous buffer, thermodynamic from solid, originally amorphous, crystallized within 7 days in aqueous buffer, pH 6.6-7.1, read-out: solubility after crystallization in aqueous buffer) is less than 5000 µg/mL. In addition, the “Comments (behaviour in solubility experiment)” value is “Forms gels” in data set [2] and “formed unwieldy gels” in data set [2] (listed as bis-sodium). Besides, the “Control % Area (Table C)” value in data set [3] (control sample at ambient lab conditions protected from light) is given as 96.4 % Area. The “Photo-stability % Area” value in data set [3] (exposed to 60% of ICH minimum) is recorded as 55.9 % Area. Moreover, the “change in XRPD” value in data set [4] is given as “no change”.
